Assay results published in US10391166B2, “Short oligonucleotides as vaccine adjuvants and therapeutic agents” (priority 2013, dated 2019).
Entries after “also recorded” stand apart in the source; their conditions may differ.

Key:
[1] = tested on: IRF3-luciferase reporter gene; assay: IRF3-luciferase reporter induction in HLE A549 cells (primary assay for NOD2 activation); type: cell-based, human; details: 12 h incubation
Procedure: The evaluation of SMNH compounds for NOD2 activation was conducted by primary, secondary, and tertiary assays. In the primary assays, SMNH compounds were tested for the induction of IRF3 expression in HLE A549 cells, which are known to endogenously express NOD2. […] SB 44, a mixture of two isomers Rp and Sp, is a prodrug of SB 40. SB 1B—the Rp isomer of SB 44 and is shown as SB 44-1 in the FIGS. 1-2.
IRF3-luciferase transfected cells were incubated with either DMSO only (UT) or SMNH compounds (μM). Following 12 h incubation, luciferase activity was measured using Dual-Luciferase Reporter Assay System (Promega) according to the manufacturer's protocol. Transfection efficiency was normalized by measuring the expression of renilla Luciferase. Luciferase units (i.e., fold induction) were measured by standard methodology (mean±standard deviation; 3 independent experiments). The results are depicted in FIG. 1.

NOD2 = target: T1, NOD2 (Homo sapiens, UniProt Q9HC29); assay: IRF3-luciferase assay in HEK 293 cells transfected with NOD2; type: cell-based; details: HEK 293 transfected with NOD2, pcDNA and IRF3-luciferase; 1 μM; 12 h
T1 construct: expressed in transfected cells; host or cells: HEK 293
Procedure: HEK 293 cells were transfected with NOD2, pcDNA and IRF3-luciferase. The cells were then incubated with ssRNA (0.5 mg/ml) or SMNH compounds (1 μM). Following 12 h incubation, Luciferase activity was measured as described previously. The luciferase assay results are presented as mean±S.D. from three independent experiments (detailed materials and methods employed in these assays, see: ref (28). The results are depicted in FIG. 2.

interferon-β (IFN-β) = assay: IFN-β production from human lung epithelial A549 cells; type: cell-based
RIG-I and NOD2 [2] = assay: Induction of responder genes RIG-I and NOD2; type: cell-based
[3] = tested on: C57Bl/6 mouse bone marrow derived macrophages; type: cell-based
MHC-II = type: cell-based, mouse
M. tuberculosis [4] = tested on: M. tuberculosis; design: species or system C57Bl/6 mice; details: mouse, in vivo
IL-1β = assay: Mature IL-1β ELISA in mouse bone marrow derived primary macrophages; type: cell-based; details: alone or with MDP or BCG, caspase blockade with ZVAD-fmk
Procedure: C57Bl/6 mouse bone marrow derived primary macrophages were treated with SB 1A or SB 1B alone, MDP alone or in combination as indicated for 4 hrs. BCG was used for infection for 4 hrs and supernatants collected 18 hr later titrated for mature IL1β using ELISA. Macrophages were first treated with ZVAD-fmk (2 hrs) for caspase blockade followed by activation with SB 1A and SB 1B (4 hrs) and BCG infection (4 hrs). Cytokine was measured 18 hrs later.

M. tuberculosis [5] = tested on: M. tuberculosis; design: species or system C57Bl/6 mice; details: mouse, in vivo; remark: listed apart in the source
in vitro = details: bovine (MDBK), African green monkey (Vero), human (HFF)
Procedure: (§1) SB 44 was subjected to cytotoxicity evaluation against a panel of cell lines including Madin-Darby bovine kidney (MDBK), Vero, and HFF (human foreskin fibroblasts) to determine their CC50. Standard Microculture Tetrazolium Assay (MTT) assays were performed in 96-well plates using MDBK, Vero, and HFF cell lines (obtained from American Type Cell Collection). Controls included the nucleoside analogs 3TC, AZT, and ddC, as well as media without drugs. SDS was used as a positive cytotoxic control. All prodrugs were tested in triplicate at concentrations of 100, 300, and 1000 μM. Following a 24-hour incubation of cells with the test substance, the MTT assay was carried out.
(§2) Standard MTT assays were performed in 96-well plates using the Promega CellTiter96 Non-radioactive Cell Proliferation Assay Kit in conjunction with a 96-well Plate Reader (ThermoMax, Molecular devices), and MDBK, Vero, and HFF cell lines (obtained from ATCC). Several controls were employed including the nucleoside analogs 3TC, AZT, and ddC, as well as, media without drugs. SDS was used as a positive cytotoxic control. The compounds were tested in triplicate at concentrations of 100, 300, and 1000 μM. Following a 24-hour incubation of cells with the test substance, the MTT assay was carried out.

[6] = tested on: peripheral blood mononuclear cells (PBMCs); assay: Multiplex assay for 28 cytokines in PBMCs; type: cell-based, human; details: up to 50 μM
PBMCs = type: cell-based
RIG-I and NOD2 [7] = type: cell-based; details: receptor-deficient cells, exogenous RIG-I and NOD2
[8] = human liver S9 fractions
Procedure: SB 44 (10 μM) was incubated with a mix containing S9 fraction (pooled from human) (1 mg/ml), NADPH (1.3 mM) UDPGA (5 mM), Alamethicin (10 μg/ml) in 1 ml of 1×PBS buffer. S-(5′-adenosyl)-L-methionine iodide (0.1 mM), adenosine 3′-phosphate 5′-phosphosulfate lithium salt hydrate (0.1 mM) and acetyl CoA (1 mM). The metabolite samples were evaluated by HPLC and LC/MS analysis.

[9] = tested on: MDBK, Vero, and HFF cell lines; assay: in vitro; details: cell line not specified (table footnote)
Procedure: as §1, §2

[10] = Procedure: The objectives of this study were to determine potential toxic effects of SB 44 following daily oral dose administration for 14 days, and to evaluate the genotoxicity of SB 44 as determined by micronucleus evaluation. Male and female Sprague-Dawley rats were administered SB 44 daily at doses of 50, 200 and 500 mg/kg/day for 14 consecutive days. […] Micronucleus evaluations were performed to determine the potential genotoxicity of SB 44. Necropsies were performed on Day 15 for rats in the main study group and on Day 28 for rats in the recovery group.

T1 sequence (Q9HC29 whole entry, species assumed): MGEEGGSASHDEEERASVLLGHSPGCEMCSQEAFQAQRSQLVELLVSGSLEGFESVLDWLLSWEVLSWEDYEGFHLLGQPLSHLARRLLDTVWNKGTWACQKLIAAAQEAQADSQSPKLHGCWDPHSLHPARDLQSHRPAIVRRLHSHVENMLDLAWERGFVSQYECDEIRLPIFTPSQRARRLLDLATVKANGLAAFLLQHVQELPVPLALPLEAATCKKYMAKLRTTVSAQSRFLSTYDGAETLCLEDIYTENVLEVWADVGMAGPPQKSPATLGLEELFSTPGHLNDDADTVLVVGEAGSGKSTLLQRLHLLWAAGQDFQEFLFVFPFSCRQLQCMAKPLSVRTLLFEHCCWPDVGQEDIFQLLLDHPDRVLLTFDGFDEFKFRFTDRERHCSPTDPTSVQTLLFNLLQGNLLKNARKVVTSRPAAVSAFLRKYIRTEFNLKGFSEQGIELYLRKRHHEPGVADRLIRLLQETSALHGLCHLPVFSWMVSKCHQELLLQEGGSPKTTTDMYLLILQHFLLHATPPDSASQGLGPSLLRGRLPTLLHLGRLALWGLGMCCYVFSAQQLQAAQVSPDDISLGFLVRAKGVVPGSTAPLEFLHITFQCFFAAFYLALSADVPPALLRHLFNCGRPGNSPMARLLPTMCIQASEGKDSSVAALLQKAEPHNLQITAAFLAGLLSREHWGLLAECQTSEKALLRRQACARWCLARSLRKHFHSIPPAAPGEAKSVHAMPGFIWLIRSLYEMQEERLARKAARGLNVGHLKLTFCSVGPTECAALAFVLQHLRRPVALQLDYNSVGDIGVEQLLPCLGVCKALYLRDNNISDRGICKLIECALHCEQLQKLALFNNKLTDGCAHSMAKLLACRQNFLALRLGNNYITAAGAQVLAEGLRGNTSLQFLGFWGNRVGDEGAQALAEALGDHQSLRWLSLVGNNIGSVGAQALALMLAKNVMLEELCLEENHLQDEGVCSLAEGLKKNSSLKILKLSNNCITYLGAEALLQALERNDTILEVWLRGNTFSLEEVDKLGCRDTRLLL

Structure (SMILES): COC1C(OP(=O)(OCC2OC(n3cnc4c(N)ncnc43)CC2O)SCOC(=O)OC(C)C)C(CO)OC1n1ccc(=O)[nH]c1=O (stereo not drawn) [SB 1B]
- IRF3 activation (IRF3-luciferase) [1]: induced IRF3 activation
- IRF3 activation mediated via NOD2 (NOD2): mediated via NOD2 activation
- production of IFN-β (interferon-β (IFN-β)): results in production of IFN-β
- induction of responder genes RIG-I and NOD2 (RIG-I and NOD2 [2]): induction of responder genes RIG-I and NOD2
- antigen presentation (Antigen-85B) in macrophages [3]: enhance antigen presentation in vitro; also recorded: retain full activity
- surface expression of MHC-II (MHC-II): increase MHC-II in MΦs
- Mtb counts of lungs (M. tuberculosis [4]): reducing Mtb counts of lungs better than either BCG or MDP+BCG
- Mtb counts of spleens (M. tuberculosis [4]): better than BCG vaccine in reducing Mtb counts of spleens
- adjuvant efficacy with BCG vaccine against tuberculosis (M. tuberculosis [4]): more efficacious as an adjuvant than SB 44; also recorded: better than muramyl dipeptide (MDP) as adjuvants
- anti-TB T cell function of mice (M. tuberculosis [4]): dramatic increase in anti-TB T cell function of mice
- numbers of multi-functional T cells (M. tuberculosis [4]): enhances the numbers of multi-functional T cells compared to BCG vaccine
- tetramer specific CD8 T cells (M. tuberculosis [4]): comparable levels of tetramer specific CD8 T cells
- induction of mature IL-1β (IL-1β): induce IL-1β only in combination with either MDP or intact BCG bacilli
- antigen specific CD8 / memory T cells in lungs of re-challenged mice (M. tuberculosis [5]): boost the magnitude of antigen specific memory T cells; also recorded: induces a robust expansion of antigen specific CD8 T cells
- protection against re-challenge of tuberculosis (M. tuberculosis [5]): protects twice as better than BCG; also recorded: induce protection against re-challenge of tuberculosis in mice
- recall response against re-challenge with tuberculosis (M. tuberculosis [5]): retain the ability to mount a better recall response

Structure (SMILES): COC1[C@@H](OP(=O)(OC[C@H]2O[C@@H](n3cnc4c(N)ncnc43)C[C@H]2O)SCOC(=O)OC(C)C)[C@@H](CO)O[C@H]1n1ccc(=O)[nH]c1=O (stereo partly drawn) [Compound 3]
- CC50 at 24 h (in vitro): > 1000 µM

Structure (SMILES): COC1C(OP(=O)(S)OCC2OC(n3cnc4c(N)ncnc43)CC2O)C(CO)OC1n1ccc(=O)[nH]c1=O (mixture of isomers) [SB 40]
- IRF3 activation (IRF3-luciferase) [1]: induced IRF3 activation
- IRF3 activation mediated via NOD2 (NOD2): mediated via NOD2 activation
- antigen presentation (Antigen-85B) in macrophages [3]: enhance antigen presentation in vitro
- surface expression of MHC-II (MHC-II): increase MHC-II in MΦs
- anti-TB T cell function of mice (M. tuberculosis [4]): dramatic increase in anti-TB T cell function of mice
- cytokine induction in human PBMC cultures [6]: did not cause cytokine induction
- IFN production in the presence of BCG (PBMCs): modest augmentation of IFN production
- enhancement of ISG-56 expression over that induced by PolyI-PolyC (RIG-I and NOD2 [7]): 2 fold
- phase II conjugative reactions [8]: no apparent evidence of any phase II conjugative reactions
- CC50 [9]: > 1000 µM
- systemic exposure females versus males, largest difference ([10]; Day 14, 500 mg/kg dose groups): about twofold
- Day 14 Cmax and AUClast values versus Day 1 ([10]; SB 40 in plasma, each dose of SB 44): higher than those on Day 1
- dose relationship for Cmax and AUClast ([10]; SB 40 in plasma, male and female rats, Days 1 and 14): nonlinear dose relationship
